Earlier results as cited in patent publication US6303615A, “2,3 disubstituded-4(3H)-quinazolinones” (Pfizer Inc, priority 1999, dated 2001).

Legend:
[1] = reported in literature (LaPeillet et al.)
[2] = reported in literature (Sheardown et al.; Buchan et al.; LePeillet et al.)

Compound	neuroprotection in rat global ischemia models [1]	preventing global and focal ischemic damage [2]
CC1=NN=C(c2ccc(N)cc2)c2cc3c(cc2C1)OCO3 [GKYI 52466]	effective neuroprotective agent	
NS(=O)(=O)c1cccc2c1c([N+](=O)[O-])cc1[nH]c(=O)c(=O)[nH]c12 [NBQX, 2,3-dihydroxy-6-nitro-7-sulfamoylbenzo[f-]quinoxaline]		effective
